Here are results for two molecules from patent US8969247B2, “Method for controlling aquatic weeds” (BASF SE, priority 2005, dated 2015).

Format in all cases: in vivo
Assay [1] relates to Hydrilla verticillata. The experiment in a line: Experiment 3: greenhouse static exposure of hydrilla to mesotrione. To be noted: 500 ppb. The procedure: (§1) Greenhouse and shade house tests were initiated to evaluate the effects of HPPD-inhibitors, exemplary topramezone and mesotrione, for the control of aquatic weeds, exemplary for the control of Hydrilla verticillata.
(§2) To begin the experiment, containers were filled and maintained with a volume of 4000 ml of distilled water at room temperature (24° C.). To each container, an established hydrilla plant (potted in sand mixture) was transferred into the water column. Hydrilla plants were selected for uniformity and length of shoot growth (approx 15 cm). Plants were allowed to equilibrate in the columns for 24 hrs prior to herbicide treatment. Experimental treatments included an untreated control and mesotrione at 500 ppb. Treatments were applied to water columns by the use of a pipette. Amount of herbicide applied was based on the total volume of the containers (4000 ml). After initial herbicide treatment, the water columns were gently stirred to ensure uniform distribution. Treatments were arranged as a complete random design with 3 replications. Each container was considered the experimental unit. Greenhouse conditions were maintained at 24/18° C. (day/night) cycle for the duration of the experiment. Natural day length was supplemented with halogen lighting to provide a 14 hr photoperiod. Water level in the containers was periodically checked and maintained at the 4000 ml level for the duration of the study. At the end of four weeks, hydrilla shoot length and fresh weights were recorded.

The test system of assay [2] is Hydrilla verticillata. Briefly: Experiment 1: greenhouse static exposure of hydrilla to topramezone. To be noted: 500 ppb. The protocol:
as §1
as §2, with “topramezone” for “mesotrione”

The subject of assay [3] is Hydrilla verticillata. Briefly: Experiment 2: shade house (outdoor) static exposure of hydrilla to topramezone. To be noted: for Hydrilla Shoot Weight: 8 weeks after treatment, dry weight biomass, control 1.5 g, LSD (0.05) 0.2. The procedure: as §1
Experiment 2 was conducted under shade house (outdoor) conditions. Four 4-liter pots were filled with 15 to 20 cm of sand medium plus amended fertilizer (15 grams Osmocote®^1 19-6-12). Four actively growing Hydrilla verticillata tips (10 to 15 cm in length) were planted 1 to 2 cm deep in medium. The four 4-liter pots were placed in 100-liter containers and covered fully with tap water. Plants were treated 15 days after planting once plant elongation and active growth were observed. There were three 100-liter containers per water treatment (three replications) with four sub-sample 4-liter pots and four Hydrilla verticillata plants per 4-liter pot. Treatments were arranged as a complete random design. ^1 Osmocote®—manufactured by: Scotts-Sierra Horticutural Products Company, Marysville, Ohio 43401 U.S.A
Water treatments of 50 ppb, 75 ppb, 100 ppb, 200 ppb, and 400 ppb of topramezone were installed. Plants were harvested 8 weeks after initial water treatment to determine dry weight biomass reductions compared to the untreated check.

The mark [4] stands for this setting: approximately 14 days after treatment.

For `CS(=O)(=O)c1ccc(C(=O)C2C(=O)CCCC2=O)c([N+](=O)[O-])c1` [mesotrione], the Visual observations entry in the assay on Hydrilla verticillata [1] (setting [4]) was “significant bleaching and reddening in the new grown tips”. Moreover, in the assay with Hydrilla verticillata [1] (end of the study (4 weeks)), the “Reduction in shoot biomass (Student's t-Test)” value is “significant reduction in shoot biomass” and the “Reduction in shoot length (Student's t-Test)” value is “did not observe a significant reduction in shoot length”. The “Hydrilla Fresh Weight” value in the assay with Hydrilla verticillata [1] (static exposure, 4 weeks after treatment, control 4.4 g) stood at 1.4 grams. The “Hydrilla Shoot Length” value in the assay with Hydrilla verticillata [1] (static exposure, 4 weeks after treatment, control 24 cm) was determined as 16 cm.

`Cc1c(C(=O)c2cnn(C)c2O)ccc(S(C)(=O)=O)c1C1=NOCC1` [topramezone]: the Visual observations result in the assay with Hydrilla verticillata [2] (setting [4]) was “significant bleaching and reddening in the new grown tips”. In addition, in the assay with Hydrilla verticillata [2] (end of the study (4 weeks)), the “Reduction in shoot length and biomass (Student's t-Test)” value was “significant reductions in both shoot length and biomass”. Also, the “Effect on hydrilla tissue vs. the untreated control” value with Hydrilla verticillata [2] (over the course of the study) is “stunting and dieback of hydrilla tissue”. The “Hydrilla Fresh Weight” value in the assay on Hydrilla verticillata [2] (static exposure, 4 weeks after treatment, control 17 g) turned out to be 0.3 grams. Besides, the “Hydrilla Shoot Length” value with Hydrilla verticillata [2] (static exposure, 4 weeks after treatment, control 37 cm) turned out to be 6 cm. The “Hydrilla Shoot Weight” value in the assay with Hydrilla verticillata [3] (50 ppb) is 1.3 grams; with Hydrilla verticillata [3] (75 ppb), 0.8 grams; in the assay with Hydrilla verticillata [3] (100 ppb) it was 0.8 grams; with Hydrilla verticillata [3] (200 ppb), 0.7 grams; in the assay with Hydrilla verticillata [3] (400 ppb) it was 0.6 grams. The “Reduction in shoot biomass vs. the untreated control” value with Hydrilla verticillata [3] (50 to 400 ppb, end of the study (8 weeks)) is on record as “significant reductions in shoot biomass”.
